# Data from PMC7044277 (Nature Communications, 2020).
# “And” between values parts separate entries of the source, which are not always exact repeats. Identical values can stand only once.
# Tests used:
# Assay type in all cases: cell-based
# 320 non-olfactory GPCRs [1] = target: T1, 320 non-olfactory GPCRs (Homo sapiens, UniProt P32245); conditions: receptor MC4R; replicate values, Fig_4g
# T1 construct: expressed in transfected cells; host or cells: HTLA cells
# 320 non-olfactory GPCRs [2] = target: 320 non-olfactory GPCRs (Homo sapiens, UniProt O95665); conditions: receptor NTSR2; replicate values, Fig_4g
# Sequence of 320 non-olfactory GPCRs (Homo sapiens, UniProt O95665) (O95665 whole entry): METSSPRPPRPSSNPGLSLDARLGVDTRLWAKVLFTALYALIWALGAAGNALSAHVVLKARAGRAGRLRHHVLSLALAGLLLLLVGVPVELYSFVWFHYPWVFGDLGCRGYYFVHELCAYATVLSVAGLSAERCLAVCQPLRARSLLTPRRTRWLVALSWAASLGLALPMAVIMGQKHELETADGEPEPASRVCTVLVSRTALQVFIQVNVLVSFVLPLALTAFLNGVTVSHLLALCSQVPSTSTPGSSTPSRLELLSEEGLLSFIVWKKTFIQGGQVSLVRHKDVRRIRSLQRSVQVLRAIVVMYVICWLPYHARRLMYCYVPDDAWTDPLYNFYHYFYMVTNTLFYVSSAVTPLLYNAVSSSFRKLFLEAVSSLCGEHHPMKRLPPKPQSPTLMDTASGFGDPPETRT
# 320 non-olfactory GPCRs [3] = target: T2, 320 non-olfactory GPCRs (Homo sapiens, UniProt P25100)
# T2 construct: expressed in transfected cells; host or cells: HTLA cells
# T2 sequence (P25100 whole entry): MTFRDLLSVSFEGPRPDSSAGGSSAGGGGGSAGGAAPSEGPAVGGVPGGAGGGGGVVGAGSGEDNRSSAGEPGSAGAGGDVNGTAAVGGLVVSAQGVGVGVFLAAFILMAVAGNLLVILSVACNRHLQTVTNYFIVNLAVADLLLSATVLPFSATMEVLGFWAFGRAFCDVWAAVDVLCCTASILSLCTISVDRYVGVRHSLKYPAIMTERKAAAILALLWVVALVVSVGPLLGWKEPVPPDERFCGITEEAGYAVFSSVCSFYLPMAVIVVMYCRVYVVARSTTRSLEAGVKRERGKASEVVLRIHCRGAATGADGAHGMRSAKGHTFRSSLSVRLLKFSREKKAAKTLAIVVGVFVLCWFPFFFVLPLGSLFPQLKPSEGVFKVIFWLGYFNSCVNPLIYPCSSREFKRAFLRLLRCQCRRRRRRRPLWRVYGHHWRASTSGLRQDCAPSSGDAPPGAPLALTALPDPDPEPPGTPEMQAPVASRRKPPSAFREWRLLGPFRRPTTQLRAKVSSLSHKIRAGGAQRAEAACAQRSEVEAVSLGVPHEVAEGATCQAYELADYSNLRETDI
# 320 non-olfactory GPCRs [4] = target: T3, 320 non-olfactory GPCRs (Homo sapiens, UniProt P47900); conditions: receptor P2RY1; replicate values, Fig_4g
# T3 construct: expressed in transfected cells; host or cells: HTLA cells
# T3 sequence (P47900 whole entry): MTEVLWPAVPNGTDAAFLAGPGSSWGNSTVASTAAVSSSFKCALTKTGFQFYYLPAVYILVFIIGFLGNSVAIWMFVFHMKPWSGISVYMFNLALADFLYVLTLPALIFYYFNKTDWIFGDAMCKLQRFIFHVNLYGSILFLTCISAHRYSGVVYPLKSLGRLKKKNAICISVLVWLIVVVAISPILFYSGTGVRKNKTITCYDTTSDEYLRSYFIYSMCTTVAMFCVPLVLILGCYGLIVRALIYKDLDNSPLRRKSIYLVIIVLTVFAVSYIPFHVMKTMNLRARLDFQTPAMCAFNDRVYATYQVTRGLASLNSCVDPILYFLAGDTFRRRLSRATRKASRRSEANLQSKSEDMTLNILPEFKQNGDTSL
# 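Throughout, for Fold of Basal: compound tested at 1 µM final concentration.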
# 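Throughout, for GPCRome agonism screen response: fold over basal response of each receptor without drug.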
# T1 sequence (P32245 whole entry): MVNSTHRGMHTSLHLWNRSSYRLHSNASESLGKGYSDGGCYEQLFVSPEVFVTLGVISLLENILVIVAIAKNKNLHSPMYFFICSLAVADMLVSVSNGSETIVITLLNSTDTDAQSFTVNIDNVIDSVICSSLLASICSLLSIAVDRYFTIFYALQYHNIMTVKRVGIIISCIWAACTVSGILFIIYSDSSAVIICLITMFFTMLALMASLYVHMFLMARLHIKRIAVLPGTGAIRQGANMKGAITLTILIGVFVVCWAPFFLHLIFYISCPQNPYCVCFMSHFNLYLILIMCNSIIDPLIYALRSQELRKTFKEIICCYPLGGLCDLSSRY
smiles,measurement,setting,value
CCOc1cccc2cc(C(C)NCC3(O)CCCCC3)oc12 (stereo not shown) [O4LE6],GPCRome agonism screen response,320 non-olfactory GPCRs [1],0.7124 and 0.7559 and 1.4135 and 1.293
same,GPCRome agonism screen response,320 non-olfactory GPCRs [2],0.5368 and 0.5673 and 0.48 and 0.67
same,Fold of Basal,320 non-olfactory GPCRs [3],1.061 and 0.9787 and 0.8777 and 0.6895
same,GPCRome agonism screen response,320 non-olfactory GPCRs [4],1.006 and 0.5483 and 1.2859 and 1.3533
